Source: US8927571B2, “Pyrido[4,3-B]indoles and methods of use” (Medivation Technologies, Inc., priority 2009, dated 2015)

Experiments:
[1] = molecular target: T1, human recombinant serotonin (5-Hydroxytryptamine) 5-HT2A receptor (Homo sapiens, UniProt P28223); assay: Serotonin 5-HT2A radioligand binding assay ([3H]Ketanserin); details: 0.5 nM [3H]Ketanserin, read-out: Percent Inhibition of ligand binding, Serotonin (1 μM) 5-HT2A
T1 construct: expressed in transfected cells; host or cells: Chinese hamster ovary (CHO-K1) cells
T1 sequence (P28223 whole entry): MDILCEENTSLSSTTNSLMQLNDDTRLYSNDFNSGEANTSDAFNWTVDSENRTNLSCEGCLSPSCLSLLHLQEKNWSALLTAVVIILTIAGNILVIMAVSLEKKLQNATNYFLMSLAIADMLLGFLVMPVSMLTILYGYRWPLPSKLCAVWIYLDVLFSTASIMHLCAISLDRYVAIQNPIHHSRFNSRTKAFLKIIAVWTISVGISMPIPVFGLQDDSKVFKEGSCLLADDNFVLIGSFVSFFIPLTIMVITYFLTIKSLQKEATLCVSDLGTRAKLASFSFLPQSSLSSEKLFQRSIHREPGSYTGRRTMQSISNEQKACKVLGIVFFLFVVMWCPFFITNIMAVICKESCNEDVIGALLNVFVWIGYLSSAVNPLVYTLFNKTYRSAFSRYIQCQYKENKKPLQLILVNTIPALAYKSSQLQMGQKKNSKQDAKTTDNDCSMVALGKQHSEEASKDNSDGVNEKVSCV
Protocol: Compounds of the invention were incubated with 0.5 nM [^3H]Ketanserin for 60 min at 25° C. Non-specific binding was estimated in the presence of 1 μM Mianserin. Receptor proteins were filtered and washed, the filters were then counted to determine [^3H]Ketanserin specifically bound. Compounds were screened at 1 μM or lower, using 1% DMSO as vehicle. Biochemical assay results are presented as the percent inhibition of specific binding in Table 4.

[2] = molecular target: human recombinant dopamine D2L receptor (Homo sapiens, UniProt P14416); assay: Dopamine D2L radioligand binding assay ([3H]Spiperone); details: for inhibition at 1 µM: read-out: Percent Inhibition of ligand binding, Dopamine (1 μM) D2L
Chain of human recombinant dopamine D2L receptor (P14416 whole entry): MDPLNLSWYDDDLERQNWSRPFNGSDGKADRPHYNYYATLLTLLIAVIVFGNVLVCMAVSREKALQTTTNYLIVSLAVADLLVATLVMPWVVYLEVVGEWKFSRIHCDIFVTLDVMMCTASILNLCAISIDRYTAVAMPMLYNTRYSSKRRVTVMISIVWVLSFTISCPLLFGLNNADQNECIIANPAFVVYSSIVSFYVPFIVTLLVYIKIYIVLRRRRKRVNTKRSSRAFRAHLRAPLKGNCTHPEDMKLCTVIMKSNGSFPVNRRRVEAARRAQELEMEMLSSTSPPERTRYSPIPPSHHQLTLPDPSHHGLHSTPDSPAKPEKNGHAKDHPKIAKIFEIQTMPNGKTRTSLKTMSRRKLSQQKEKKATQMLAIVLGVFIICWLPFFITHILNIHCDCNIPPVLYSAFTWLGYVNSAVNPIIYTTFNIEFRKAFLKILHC
Protocol: Compounds of the invention were incubated with 0.16 nM [^3H]Spiperone for 120 min at 25° C. Non-specific binding was estimated in the presence of 10 μM Haloperidol. Receptor proteins were filtered and washed, the filters were then counted to determine [^3H]Spiperone specifically bound. Compounds were screened at 1 μM or lower, using 1% DMSO as vehicle. Biochemical assay results are presented as the percent inhibition of specific binding in Table 3.

[3] = molecular target: T2, human recombinant adrenergic α2B receptor (Homo sapiens, UniProt P18089); assay: Adrenergic α2B radioligand binding assay ([3H]Rauwolscine); details: 2.5 nM [3H]Rauwolscine, read-out: Percent Inhibition of ligand binding, Adrenergic (1 μM) α2B
T2 construct: expressed in transfected cells; host or cells: Chinese hamster ovary (CHO-K1) cells
T2 sequence (P18089 1-450): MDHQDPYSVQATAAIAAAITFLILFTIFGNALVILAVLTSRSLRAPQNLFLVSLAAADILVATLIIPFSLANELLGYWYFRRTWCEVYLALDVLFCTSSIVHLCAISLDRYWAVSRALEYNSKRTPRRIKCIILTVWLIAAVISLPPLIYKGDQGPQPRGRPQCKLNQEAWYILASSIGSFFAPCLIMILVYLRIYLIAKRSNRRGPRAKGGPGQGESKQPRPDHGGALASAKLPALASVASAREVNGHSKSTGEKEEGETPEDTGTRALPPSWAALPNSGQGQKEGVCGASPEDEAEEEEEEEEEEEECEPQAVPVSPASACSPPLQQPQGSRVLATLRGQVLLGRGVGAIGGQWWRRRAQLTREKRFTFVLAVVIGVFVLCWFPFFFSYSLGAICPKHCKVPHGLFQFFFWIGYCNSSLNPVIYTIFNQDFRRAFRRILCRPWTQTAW
Protocol: To evaluate in radioligand binding assays the activity of compounds of the invention, human recombinant adrenergic α2B receptor expressed in Chinese hamster ovary (CHO-K1) cells (Uhlen S et al. Eur. J. Pharmacol. 343(1):93, 1998) in a modified Tris-HCl buffer (50 mM Tris-HCl, pH 7.4, 12.5 mM MgCl2, 1 mM EDTA, 0.2% BSA) was used. Compounds of the invention were incubated with 2.5 nM [^3H]Rauwolscine for 60 min at 25° C. Non-specific binding was estimated in the presence of 10 μM Prozosin. Receptor proteins were filtered and washed, the filters were then counted to determine [^3H]Rauwolscine specifically bound. Compounds were screened at 1 μM or lower, using 1% DMSO as vehicle. Biochemical assay results are presented as the percent inhibition of specific binding in Table 3.

[4] = molecular target: T3, human recombinant adrenergic α2A receptor (Homo sapiens, UniProt P08913); assay: Adrenergic α2A radioligand binding assay ([3H]MK-912); details: 1 nM [3H]MK-912, read-out: Percent Inhibition of ligand binding, Adrenergic (1 μM) α2A
T3 construct: expressed in transfected cells; host or cells: insect Sf9 cells
T3 sequence (P08913 1-465): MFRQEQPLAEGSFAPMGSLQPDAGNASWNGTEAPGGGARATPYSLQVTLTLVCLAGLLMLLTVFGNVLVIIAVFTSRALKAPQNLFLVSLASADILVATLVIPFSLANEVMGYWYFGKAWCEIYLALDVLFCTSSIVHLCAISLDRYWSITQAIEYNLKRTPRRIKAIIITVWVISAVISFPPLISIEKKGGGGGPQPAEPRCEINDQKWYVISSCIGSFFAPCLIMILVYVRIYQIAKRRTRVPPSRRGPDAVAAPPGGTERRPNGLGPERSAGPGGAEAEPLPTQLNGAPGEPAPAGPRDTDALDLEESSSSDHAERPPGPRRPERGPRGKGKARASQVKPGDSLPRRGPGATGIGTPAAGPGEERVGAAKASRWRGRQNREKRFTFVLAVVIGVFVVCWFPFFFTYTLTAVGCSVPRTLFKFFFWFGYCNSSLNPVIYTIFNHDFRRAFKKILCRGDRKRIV
Protocol: To evaluate in radioligand binding assays the activity of compounds of the invention, human recombinant adrenergic α2A receptor expressed in insect Sf9 cells (Uhlen S et al. J. Pharmacol. Exp. Ther. 271:1558, 1994) in a modified Tris-HCl buffer (50 mM Tris-HCl, pH 7.4, 12.5 mM MgCl2, 2 mM EDTA) was used. Compounds of invention were incubated with 1 nM [^3H]MK-912 for 60 min at 25° C. MK912 is (2S-trans)-1,3,4,5′,6,6′,7,12b-octahydro-1′,3′-dimethyl-spiro[2H-benzofuro[2,3-a]quinolizine-2,4′(1′H)-pyrimidin]-2′(3′H)-one hydrochloride Non-specific binding was estimated in the presence of 10 μM WB-4101 (2-(2,6-dimethoxyphenoxyethyl) aminomethyl-1,4-benzodioxane hydrochloride). Receptor proteins were filtered and washed, the filters were then counted to determine [^3H]MK-912 specifically bound. Compounds were screened at 1 μM or lower, using 1% DMSO as vehicle. Biochemical assay results are presented as the percent inhibition of specific binding in Table 3.

[5] = molecular target: human recombinant serotonin (5-Hydroxytryptamine) 5-HT7 receptor (Homo sapiens, UniProt P34969); assay: Serotonin 5-HT7 radioligand binding assay ([3H]LSD); details: 5.5 nM [3H]LSD, read-out: Percent Inhibition of ligand binding, Serotonin (1 μM) 5-HT7
Chain of human recombinant serotonin (5-Hydroxytryptamine) 5-HT7 receptor (P34969 whole entry): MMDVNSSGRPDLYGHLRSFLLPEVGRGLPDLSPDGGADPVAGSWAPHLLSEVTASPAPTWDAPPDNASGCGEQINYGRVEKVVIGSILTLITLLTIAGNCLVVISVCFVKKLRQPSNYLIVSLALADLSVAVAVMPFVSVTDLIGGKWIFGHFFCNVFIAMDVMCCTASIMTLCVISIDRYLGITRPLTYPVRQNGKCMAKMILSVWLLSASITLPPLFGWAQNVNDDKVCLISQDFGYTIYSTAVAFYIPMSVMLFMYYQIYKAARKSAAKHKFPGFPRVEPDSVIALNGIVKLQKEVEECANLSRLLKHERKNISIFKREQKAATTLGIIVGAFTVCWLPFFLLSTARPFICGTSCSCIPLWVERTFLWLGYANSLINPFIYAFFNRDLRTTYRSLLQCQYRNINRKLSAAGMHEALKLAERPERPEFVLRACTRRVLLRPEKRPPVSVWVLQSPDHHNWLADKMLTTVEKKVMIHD
Protocol: Compounds of invention were incubated with 5.5 nM [^3H] Lysergic acid diethylamide (LSD) for 2 h at 25° C. […] Receptor proteins were filtered and washed, the filters were then counted to determine [^3H]LSD specifically bound. Compounds were screened at 1 μM or lower, using 1% DMSO as vehicle. Biochemical assay results are presented as the percent inhibition of specific binding in Table 4.

Structure (SMILES): Cc1ccc2c(c1)c1c(n2CC2(c3ccccc3)OCCO2)CCN(C)C1 [Compound 2, 2,8-dimethyl-5-((2-phenyl-1,3-dioxolan-2-yl)methyl)-2,3,4,5-tetrahydro-1H-pyrido[4,3-b]indole]
- inhibition at 1 µM [1]: 93%
- inhibition at 1 µM [2]: 51%
- inhibition at 1 µM [3]: 103%
- inhibition at 1 µM [4]: 91%

Structure (SMILES): Cc1ccc2c(c1)c1c(n2CC2(c3ccc(F)cc3)OCCO2)CCN(C)C1 [Compound 3, 5-((2-(4-fluorophenyl)-1,3-dioxolan-2-yl)methyl)-2,8-dimethyl-2,3,4,5-tetrahydro-1H-pyrido[4,3-b]indole]
- inhibition at 1 µM [1]: 99%
- inhibition at 1 µM [5]: 99%
- inhibition at 1 µM [2]: 45%
- inhibition at 1 µM [3]: 106%
- inhibition at 1 µM [4]: 92%

Structure (SMILES): CN1CCc2c(c3cc(Cl)ccc3n2CC2(c3ccc(F)cc3)OCCO2)C1 [Compound 4, 8-chloro-5-((2-(4-fluorophenyl)-1,3-dioxolan-2-yl)methyl)-2-methyl-2,3,4,5-tetrahydro-1H-pyrido[4,3-b]indole]
- inhibition at 1 µM [1]: 99%
- inhibition at 1 µM [5]: 93%
- inhibition at 1 µM [2]: 58%
- inhibition at 1 µM [3]: 103%
- inhibition at 1 µM [4]: 95%

Structure (SMILES): CN1CCc2c(c3cc(Cl)ccc3n2CC2(c3ccc(Cl)cc3)OCCO2)C1 [Compound 5, 8-chloro-5-((2-(4-chlorophenyl)-1,3-dioxolan-2-yl)methyl)-2-methyl-2,3,4,5-tetrahydro-1H-pyrido[4,3-b]indole]
- inhibition at 1 µM [1]: 99%
- inhibition at 1 µM [5]: 89%
- inhibition at 1 µM [2]: 53%
- inhibition at 1 µM [3]: 97%
- inhibition at 1 µM [4]: 95%

Structure (SMILES): CCOC(=O)CC(Cn1c2c(c3cc(C)ccc31)CN(C)CC2)c1ccc(F)cc1 (centres unmarked) [Compound 6, ethyl 4-(2,8-dimethyl-3,4-dihydro-1H-pyrido[4,3-b]indol-5(2H)-yl)-3-(4-fluorophenyl)butanoate]
- inhibition at 1 µM [1]: 95%
- inhibition at 1 µM [5]: 93%
- Percent Inhibition of ligand binding, Dopamine (1 μM) D2L [2]: 31%
- inhibition at 1 µM [2]: 24%
- inhibition at 1 µM [3]: 95%
- inhibition at 1 µM [4]: 95%

Structure (SMILES): Cc1ccc2c(c1)c1c(n2CC(CC(=O)O)c2ccc(F)cc2)CCN(C)C1 (centres unmarked) [Compound 7, 4-(2,8-dimethyl-3,4-dihydro-1H-pyrido[4,3-b]indol-5(2H)-yl)-3-(4-fluorophenyl)butanoic acid]
- inhibition at 1 µM [1]: 9%
- inhibition at 1 µM [5]: 5%
- inhibition at 1 µM [2]: -10%
- inhibition at 1 µM [3]: 12%
- inhibition at 1 µM [4]: 9%

Structure (SMILES): CNC(=O)CC(Cn1c2c(c3cc(C)ccc31)CN(C)CC2)c1ccc(F)cc1 (centres unmarked) [Compound 8, 4-(2,8-dimethyl-3,4-dihydro-1H-pyrido[4,3-b]indol-5(2H)-yl)-3-(4-fluorophenyl)-N-methylbutanamide]
- inhibition at 1 µM [1]: 85%
- inhibition at 1 µM [5]: 74%
- inhibition at 1 µM [2]: 14%
- inhibition at 1 µM [3]: 72%
- inhibition at 1 µM [4]: 63%
